# In patent publication US7303765B2, “Ultrafine-L-carnitine, methods of preparing the same, compositions containing the same, and methods of using the same” (Sigma-Tau HealthScience S.p.A., priority 1999, dated 2007):
# Experiments:
# [1] = Oral toxicity (LD50) in rats; settings: rat, in vivo
# Solubility in water = type: physicochemical
# Text: Ultra-fine L-carnitine fumarate so prepared has the following analytical properties: […]
# [2] = Bioavailability / human plasma levels after dosing; settings: in vivo
# Text: Transformers may therefore accomplish the target dosage using a reduced active bolus, an efficiency which translates to cost savings. In principle, consumers purchase nutritionals on a pure weight volume (W/V) basis.
compound,measurement,setting,value
"C[N+](C)(C)C[C@H](O)CC(=O)[O-].O=C(O)/C=C/C(=O)O [Ultra-fine L-carnitine fumarate, L-carnitine fumarate]",LD50,[1],> 8000 mg/kg
same,Solubility,Solubility in water,5 g/100 ml in water
same,bioavailability through the mitochondrial pathway,[2]; human,increased bioavailability
same,human plasma levels,[2],equal those of conventionally sized L-carnitine tartrate
